The subject of test [1] is Huh-7. Nature of the test: Inhibition of cell migration in human Huh-7 cells incubated for 24 hrs by scratch wound healing assay. In kind it is functional, cell-based. Conditions: dose 0.55-2.2 µM.
In test [2] the test system is Huh-7. The test is described as follows: Antimigratory activity against human Huh-7 cells assessed as down-regulation of N-cadherin expression at 0.55 to 2.2 uM incubated 24 hrs by Western blotting analysis. It is filed as functional, cell-based. Conditions: dose 0.55-2.2 µM. On the technique in general: A western blot detects proteins with antibodies after separation by electrophoresis.

Test [3] deals with Huh-7. The test is described as follows: Antitumor activity against human Huh-7 cells xenografted in BALB/c mouse assessed as tumor growth inhibition at 30 mg/kg, ip qd measured after 14 days. In kind it is functional. To be noted: Huh-7, 336 h, time 14 day, read-out: TGI. A general note: In xenograft studies the graft and the host belong to different species.
Test [4] concerns the target Serine/threonine-protein kinase AKT (Homo sapiens) (UniProt P31751+Q9Y243+P31749). Nature of the test: Inhibition of Akt signalling pathway in human SK-HEP1 cells assessed as inhibition of Akt phosphorylation at 1.5 to 13.5 uM measured after 48 hrs by Western blotting analysis. It is filed as cell-based. Conditions: dose 1.5-13.5 µM.
Test [5] relates to Huh-7. The test is described as follows: Induction of apoptosis in human Huh-7 cells assessed as inhibition of caspase-9 expression incubated for 48 hrs by Western blotting analysis. It is filed as functional, cell-based. To be noted: dose 0.9-8.1 µM.

Molecules are shown by their SMILES. Active and inactive are the calls of the source. No cut-off for these calls is given here.

Chain of Serine/threonine-protein kinase AKT (Homo sapiens) (P31749 whole entry, looked up): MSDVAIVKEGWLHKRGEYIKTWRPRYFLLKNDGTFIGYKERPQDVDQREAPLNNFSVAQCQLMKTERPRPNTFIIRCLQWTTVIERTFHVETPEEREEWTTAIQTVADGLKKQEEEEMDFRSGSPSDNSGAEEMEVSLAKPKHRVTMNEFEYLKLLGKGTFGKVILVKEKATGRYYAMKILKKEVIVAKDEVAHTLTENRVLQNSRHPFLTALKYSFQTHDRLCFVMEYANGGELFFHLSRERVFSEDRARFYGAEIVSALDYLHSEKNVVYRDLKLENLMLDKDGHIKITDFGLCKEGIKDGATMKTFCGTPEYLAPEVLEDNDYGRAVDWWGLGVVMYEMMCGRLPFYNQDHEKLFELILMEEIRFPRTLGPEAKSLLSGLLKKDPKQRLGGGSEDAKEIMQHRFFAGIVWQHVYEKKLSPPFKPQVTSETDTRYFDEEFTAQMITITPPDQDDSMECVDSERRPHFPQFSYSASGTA
Chain of Serine/threonine-protein kinase AKT (Homo sapiens) (P31751 whole entry, looked up): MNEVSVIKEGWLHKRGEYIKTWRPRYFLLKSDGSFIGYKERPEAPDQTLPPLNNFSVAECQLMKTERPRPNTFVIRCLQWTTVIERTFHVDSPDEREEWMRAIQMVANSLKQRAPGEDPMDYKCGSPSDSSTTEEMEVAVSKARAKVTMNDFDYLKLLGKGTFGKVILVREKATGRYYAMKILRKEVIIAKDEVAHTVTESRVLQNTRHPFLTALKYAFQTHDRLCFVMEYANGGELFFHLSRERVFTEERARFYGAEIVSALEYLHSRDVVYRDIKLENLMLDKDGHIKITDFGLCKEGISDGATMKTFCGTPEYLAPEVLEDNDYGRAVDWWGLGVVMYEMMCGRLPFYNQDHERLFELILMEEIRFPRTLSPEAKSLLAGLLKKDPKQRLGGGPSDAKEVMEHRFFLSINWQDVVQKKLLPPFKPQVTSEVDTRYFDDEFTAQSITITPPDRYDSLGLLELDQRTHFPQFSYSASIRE
Chain of Serine/threonine-protein kinase AKT (Homo sapiens) (Q9Y243 whole entry, looked up): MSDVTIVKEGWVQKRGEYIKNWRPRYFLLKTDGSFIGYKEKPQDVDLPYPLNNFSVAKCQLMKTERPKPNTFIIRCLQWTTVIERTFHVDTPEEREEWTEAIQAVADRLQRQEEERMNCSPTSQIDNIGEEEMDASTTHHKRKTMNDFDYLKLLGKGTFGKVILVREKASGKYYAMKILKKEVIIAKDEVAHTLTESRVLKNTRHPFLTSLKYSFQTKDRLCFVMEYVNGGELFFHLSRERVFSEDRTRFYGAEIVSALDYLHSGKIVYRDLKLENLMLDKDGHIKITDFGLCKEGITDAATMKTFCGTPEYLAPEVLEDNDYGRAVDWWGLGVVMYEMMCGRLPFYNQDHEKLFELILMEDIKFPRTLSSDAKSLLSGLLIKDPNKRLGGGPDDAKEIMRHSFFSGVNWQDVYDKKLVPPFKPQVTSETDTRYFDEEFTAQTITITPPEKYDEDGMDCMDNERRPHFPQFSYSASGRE

On to `CC(=O)Oc1ccccc1/C=C/c1nccc2ccccc12`, for which the inhibition entry in the test with Huh-7 [1] was “Dose-Dependent Effect”. In addition, in the test on Huh-7 [2], the outcome was Active. Moreover, the inhibition in vivo at 30 mg/kg in the test with Huh-7 [3] was found to be 41.4%. Besides, the inhibition result in test [4] was “Active”. Also, in the test with Huh-7 [5], the Activity result is “Dose-Dependent Effect”.

Source of the values: ChEMBL document CHEMBL5370544, “Design, synthesis, and biological evaluation of 1-styrenyl isoquinoline derivatives for anti-hepatocellular carcinoma activity and effect on mitochondria” (Eur J Med Chem, 2023).
